We go through four compounds from patent publication EP4803512A1, “COMPOUND CAPABLE OF INHIBITING CONNEXIN-ASSOCIATED KINASE 1, PREPARATION, AND USE THEREOF” (Xizang Haisco Pharmaceutical Co., Ltd., priority 2023, dated 2025).

In one data set the target is T1, hERG potassium channel (Homo sapiens, UniProt Q12809).
T1 construct: expressed in transfected cells
The data set is described as follows: hERG potassium channel activity assay, manual whole-cell patch clamp. The data set is classed as cell-based. To be noted: IC50, inhibition of hERG potassium channel current, CHO cells stably expressing hERG. From the text:
2.1 Experimental preparation: Experimental platform: manual electrophysiological patch-clamp system; Cell line: Chinese hamster ovary (CHO) cell line stably expressing hERG potassium channel.
2.2. Experimental method: In Chinese Hamster Ovary (CHO) cells stably expressing hERG potassium channel, the whole-cell patch-clamp technique was used to record hERG potassium channel current at room temperature. The glass microelectrodes were pulled from glass electrode blanks (BF150-86-10, Sutter) by a glass microelectrode puller. The tip resistance of the microelectrodes after being filled with intrapipette solution was about 2-5 MΩ. The glass microelectrodes were connected to the patch-clamp amplifier by inserting them into an amplifier probe. The clamping voltage and data recording were controlled and recorded by the pClamp 10 software through a computer, with a sampling frequency of 10 kHz and a filtering frequency of 2 kHz. After the whole cell records were obtained, the cells were clamped at -80 mV, and the step voltage that induced the hERG potassium current (I hERG) was depolarised from -80 mV to +20 mV for 2 s, then repolarised to -50 mV, and returned to -80 mV after 1 s. […]
Compound IC50 was calculated using GraphPad Prism 5 software by fitting according to the following equation: Y = Bottom + (Top−Bottom)/(1+10^(∧)((LogIC50−X)×HillSlope)) [formula] […]

Data set [1] can be described thus: Pharmacokinetic assay in mice. The format is in vivo, ICR mice. As to conditions: plasma. On the procedure: 3.1 Experimental animals: Male ICR mice, 20-25 g, 6 mice/compound, purchased from Chengdu Dossy Experimental Animals Co., Ltd.
3.2 Experimental design: on the day of the experiment, the ICR mice were randomly grouped according to their body weights. The animals were fasted with water available for 12-14 h one day before the administration, and were fed 4 h after the administration. Table 3 Administration information
vehicle for intravenous administration: 5%DMA+5%HS-15+90%NS; vehicle for intragastric administration: 0.5% MC; before and after administration, 0.06 mL of blood was taken from the orbit under isoflurane anaesthesia and placed in an EDTAK2 centrifuge tube. The tube was centrifuged at 5000 rpm at 4°C for 10 min, and plasma was collected. The blood sampling time points for both the intravenous administration group and intragastric administration group were 0, 5 min, 15 min, 30 min, 1 h, 2 h, 4 h, 7 h and 24 h. Before analysis and detection, all samples were stored at -80°C, and the samples were quantitatively analysed by LC-MS/MS. Table 4 Pharmacokinetic parameters of test compounds in plasma of mice

Data set [2] can be described thus: Liver microsomal stability assay, rat liver microsomal model. The format is in vitro ADME. As to conditions: rat liver microsomes, 1 µM, 37°C, NADPH. The procedure: In this experiment, liver microsomes of five species, including human, monkey, dog, rat and mouse, were used as in vitro models to evaluate the metabolic stability of the test compound.
At 37°C, 1 µM of the test compound was co-incubated with microsomal protein and coenzyme NADPH. At given time points of the reaction (5 min, 10 min, 20 min, 30 min, and 60 min), the reaction was terminated by adding ice-cold acetonitrile containing an internal standard. The LC-MS/MS method was used to measure the concentration of the test compound in the sample. T1/2 was calculated using the ln value of the percentage of drug remaining in the incubation system and the incubation time. In addition, the intrinsic clearance in liver microsomes CLint(mic) and the intrinsic clearance in liver CLint(Liver) were further calculated. Table 7 Results of test compounds in rat liver microsomal model

In a further data set the target is T2, AAK1 (Homo sapiens, UniProt Q2M2I8).
T2 construct: purchased Signalchem A01-11G-10
In words: In vitro AAK1 enzyme activity assay (ADP-Glo). As to conditions: inhibitory activity against AAK1. The format is biochemical. The procedure: Compound stock solution (concentration: 10 mM, dissolved in DMSO) was diluted with DMSO to 0.2 mM and then diluted with DMSO in 5-fold gradient to obtain compound solutions with 10 concentrations. Subsequently, the compound solutions with different concentrations were diluted 50-fold in 1× kinase reaction buffer (containing 40 mM Tris, 20 mM MgCl2, 0.1% BSA and 0.5 mM DTT) for later use. AAK1 (Signalchem, Cat# A01-11G-10) was diluted with 1× kinase reaction buffer to 2-fold the final concentration (final concentrations: 30 nM and 28 nM). AAK1 was added to a 384-well white plate at 2 µL/well, and the compounds were then added at 1 µL/well. The plate was sealed with a plate-sealing film, centrifuged at 1000 rpm for 30 seconds and then placed at room temperature for 10 minutes. […] The RLU (Relative luminescence unit) signal values were read using a Biotek multimode microplate reader, and the percent inhibition was calculated according to the following formula: [1-(LUM compound-LUM positive control) / (LUM negative control-LUM positive control)] × 100. IC50 values were calculated using Graphpad 7.0 software using a four-parameter non-linear fit equation. […]
A general note: ADP-Glo turns the ADP formed in a reaction into a luminescent signal.

The nature of data set [3]: Pharmacokinetic assay in rats. The format is in vivo, SD rats. As to conditions: rat, po, plasma, Intragastric administration (5 mg/kg). The procedure: 4.1 Experimental animals: Male SD rats, about 220 g, 6-8 weeks old, 6 rats/compound, purchased from Chengdu Dossy Experimental Animals Co., Ltd.
4.2 Experimental design: on the day of the experiment, 6 SD rats were randomly grouped according to their body weights. The animals were fasted with water available for 12-14 h one day before the administration, and were fed 4 h after the administration. Table 5 Administration information
Before and after the administration, 0.1 ml of blood was taken from the orbit under isoflurane anaesthesia and placed in an EDTAK2 centrifuge tube. The tube was centrifuged at 5000 rpm at 4°C for 10 min, and plasma was collected. Blood sampling time points for the intravenous administration group: 0, 5 min, 15 min, 30 min, 1 h, 2 h, 4 h, 6 h, 8 h and 24 h; blood sampling time points for the intragastric administration group: 0, 5 min, 15 min, 30 min, 1 h, 2 h, 4 h, 6 h, 8 h and 24 h. Before analysis and detection, all samples were stored at -80°C.

The next data set concerns PC12 cells. To be noted: cited from earlier work.
The conditions of data set [4]: cited from earlier work.
The conditions of data set [5]: cited from earlier work. The source holds these as a separate data set.
The conditions of data set [6]: mice; cited from earlier work.
The conditions of data set [7]: mice; cited from earlier work. This is another data set of the same source.
The mark [8] stands for this setting: Intragastric administration (10 mg/kg), 10 mg/kg.

T1 sequence (Q12809 whole entry): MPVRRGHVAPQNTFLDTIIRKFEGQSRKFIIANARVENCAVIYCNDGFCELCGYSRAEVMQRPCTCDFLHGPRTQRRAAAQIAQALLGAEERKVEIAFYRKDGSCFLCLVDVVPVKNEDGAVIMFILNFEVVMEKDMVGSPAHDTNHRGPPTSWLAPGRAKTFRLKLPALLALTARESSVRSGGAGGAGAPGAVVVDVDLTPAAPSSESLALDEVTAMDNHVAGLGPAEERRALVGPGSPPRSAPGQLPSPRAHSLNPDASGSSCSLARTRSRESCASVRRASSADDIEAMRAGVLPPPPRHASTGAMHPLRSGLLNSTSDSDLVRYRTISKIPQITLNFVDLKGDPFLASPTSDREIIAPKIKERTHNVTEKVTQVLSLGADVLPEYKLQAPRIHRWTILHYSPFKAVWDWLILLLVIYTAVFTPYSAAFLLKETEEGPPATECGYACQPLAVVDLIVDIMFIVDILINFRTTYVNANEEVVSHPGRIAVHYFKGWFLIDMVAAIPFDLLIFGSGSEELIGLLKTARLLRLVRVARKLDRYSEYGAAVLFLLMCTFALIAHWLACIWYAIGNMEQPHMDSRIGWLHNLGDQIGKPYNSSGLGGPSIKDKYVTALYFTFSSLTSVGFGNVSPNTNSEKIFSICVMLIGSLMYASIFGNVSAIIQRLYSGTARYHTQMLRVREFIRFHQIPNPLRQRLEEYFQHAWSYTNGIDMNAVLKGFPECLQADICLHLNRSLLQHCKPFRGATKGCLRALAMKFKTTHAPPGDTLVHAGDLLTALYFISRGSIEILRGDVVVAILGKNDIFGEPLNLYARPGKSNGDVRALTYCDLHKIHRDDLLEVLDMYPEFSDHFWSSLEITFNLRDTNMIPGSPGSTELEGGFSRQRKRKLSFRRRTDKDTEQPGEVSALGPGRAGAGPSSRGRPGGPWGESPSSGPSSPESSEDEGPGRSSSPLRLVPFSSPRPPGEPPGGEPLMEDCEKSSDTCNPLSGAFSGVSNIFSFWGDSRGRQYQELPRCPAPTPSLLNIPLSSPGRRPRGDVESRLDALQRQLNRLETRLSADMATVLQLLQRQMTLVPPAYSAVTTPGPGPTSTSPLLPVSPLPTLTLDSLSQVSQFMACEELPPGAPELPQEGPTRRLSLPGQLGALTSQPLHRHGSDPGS
T2 sequence (Q2M2I8 27-365 limits assumed): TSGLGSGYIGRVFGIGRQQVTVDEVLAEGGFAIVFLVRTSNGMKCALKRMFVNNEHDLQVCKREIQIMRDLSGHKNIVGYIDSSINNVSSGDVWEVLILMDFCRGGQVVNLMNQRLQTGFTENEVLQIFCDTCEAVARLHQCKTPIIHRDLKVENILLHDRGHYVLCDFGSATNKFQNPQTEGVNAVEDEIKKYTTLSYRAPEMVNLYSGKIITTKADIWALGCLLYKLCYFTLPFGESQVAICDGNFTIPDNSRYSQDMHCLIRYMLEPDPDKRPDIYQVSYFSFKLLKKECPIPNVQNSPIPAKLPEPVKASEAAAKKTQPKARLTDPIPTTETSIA

On hERG potassium channel, `CC(O)(CO)C[C@](C)(N)COc1ccc(-c2ccnc(C(F)F)c2)nc1C(F)F` (single isomer, unassigned) [Compound 1-1] registered an IC50 of 6.73 µM. In [1] (setting [8]), the AUC(0-t) was found to be 4400 ng·h/mL and the T1/2 worked out at 4.82 h. The “Percentage of drug remaining after 60 min of incubation” value in [2] is listed as 93.7%. On AAK1, the IC50 is not above 0.02 µM.

`CC(O)(CO)C[C@](C)(N)COc1ccc(-c2ccnc(C(F)F)c2)nc1C(F)F` (single isomer, unassigned) [Compound 1-2]: the IC50 was 13.7 µM on hERG potassium channel and not above 0.02 µM at AAK1. The AUC(0-t) came out at 4050 ng·h/mL in data set [3]; 630 ng·h/mL in [1] (mouse, iv, 2.5 mg/kg, Intravenous administration (2.5 mg/kg), read-out: AUC0-t); 3520 ng·h/mL in data set [1] (mouse, po, 10 mg/kg, Intragastric administration (10 mg/kg), read-out: AUC0-t). Moreover, the half-life in [3] was 4.52 h; in data set [1] (mouse, iv, 2.5 mg/kg, Intravenous administration (2.5 mg/kg)), 2.53 h; in data set [1] (mouse, po, 10 mg/kg, Intragastric administration (10 mg/kg)), 3.09 h. Further, the clearance in [1] (mouse, Intravenous administration (2.5 mg/kg)) worked out at 57.8 mL/min/kg. In [1] (mouse, Intravenous administration (2.5 mg/kg), read-out: Vdss), the Vd amounted to 10.5 L/kg. Also, the “Percentage of drug remaining after 60 min of incubation” value in data set [2] is more than 99%.

For the compound `COC(=O)[C@@]1(O)C[C@H]2O[C@]1(C)n1c3ccccc3c3c4c(c5c6ccccc6n2c5c31)C(=O)NC4` [Compound K252a], in the data set on PC12 cells, the “ErbB4 accumulation in the plasma membrane or in close proximity to the plasma membrane” value is “increased”, the ErbB4 expression entry is recorded as “increased” and the neuregulin-1-induced neurite outgrowth entry is on record as “potentiates”.

In the case of `COc1ncccc1-c1cnn2ccc(N3CCN(C(=O)OC(C)C)CC3)nc12` [LP-935509], the “pain responses in the mouse chronic constriction injury (CCI) model” value in [4] is reported as “significantly attenuate”. Further, the “pain responses in the mouse streptozotocin-induced diabetic neuropathy model” value in data set [5] is “significantly attenuate”. The “mechanical allodynia induced by SNL” value in [6] is recorded as “significantly attenuate”. In addition, the “pain responses in phase II of the formalin model” value in [7] is recorded as “significantly attenuate”.

Usually IC50 stands for the midpoint of a concentration-inhibition curve. Lower therefore signals greater potency in that assay. The half-life is the time in which the quantity being followed falls by half. Read a high half-life as slow decline. What is called clearance is the rate of elimination divided by the concentration. Read a low clearance as a low capacity for elimination.
